# Measurements as given in US11932683B2, “Cellular factors involved in the cytotoxicity of Staphylococcus aureus leukocidins: novel therapeutic targets” (NEW YORK UNIVERSITY, priority 2013, dated 2024).
# Tests used:
# human PMNs = test: Viability of PMNs challenged with a lethal dose of LukED in the presence of chemokines; type: cell-based; settings: LukED 75 nM
# PMNs = test: Ex vivo infection of PMNs with toxin-producing S. aureus strains; type: cell-based, human; settings: multiplicity of infection of 10
# Procedure: Ex vivo infection experiments. S. aureus strains containing either the pOS1-plukA-lukAs.s.-6×His vector construct containing either no toxin (empty), lukED or lukE^DR4D were subcultured for 4.5 hours, followed by normalization to 1×10^9 CFU per ml in RPMI+10% FBS. Cells were diluted 1:10 and 20 μl were added to 80 μl of media containing 2×10^5 PMNs seeded into 96-well plates. Infections were carried out for 3.5 hours at 37° C. with shaking at 180 RPM. 2 μg ml-1 of lysostaphin was added for 20 minutes at 37° C. with shaking at 180 RPM to kill all bacteria. Cells were centrifuged for 5 minutes at 1,500 RPM and 4° C., followed by fixing in FACS fixing buffer (PBS+2% FBS+2% paraformaldehyde+0.05% sodium azide). To analyze toxin mediated killing by flow cytometry, cellular depletion from gated live cells was evaluated. Percent cell death was calculated by comparing cells remaining in the live gate to that of Newman ΔΔΔΔ strain containing the empty pOS1-plukA modified empty vector (no toxin), which was set to 0% dead.
substance,measurement,setting,value
"CXCL8: chemokine ligand of CXCR1/CXCR2, obtained from BioLegend",prevention of LukED-mediated death of PMNs,human PMNs,prevented LukED-mediated death of PMNs
same,inhibition of cytotoxic activity of the LukED-producing S. aureus strain on PMNs,PMNs,inhibited by CXCL8
